The values that follow come from ChEMBL document CHEMBL3085632, “Subcellular localization of proflavine derivative and induction of oxidative stress--in vitro studies” (Bioorg Med Chem, 2013).

Activity calls are given as the source filed them. The calls are words filed in the database; no cut-off is given here.

What is called IC50 is the concentration needed to halve the response being measured.

Series [1] relates to L1210. Description: Induction of apoptosis in mouse L1210 cells assessed as nucleosomal DNA fragmentation at 10 to 15 uM after 4 hrs by agarose gel electrophoresis. Type of series: functional, cell-based.
The test system of series [2] is L1210. Description: Induction of apoptosis in mouse L1210 cells assessed as DNA ladder formation at 10 to 15 uM after 8 hrs by agarose gel electrophoresis. The series is classed as functional, cell-based.
For series [3], the system named is L1210. Description: Cytotoxicity against mouse L1210 cells assessed as decrease in intracellular ATP level at 10 uM after 6 hrs by luminometric assay. The series is classed as functional. Set-up: scale not given: the % may be the effect or the level left.
Series [4] can be described thus: Selectivity ratio of IC50 for mouse NIH/3T3 cells to IC50 for human HL60 cells. The series is classed as ADME, cell-based, HL-60. The settings on record: NIH/3T3 cells versus HL60 cells, read-out: Ratio IC50.
Series [5] concerns L1210. Description: Cytotoxicity against mouse L1210 cells assessed as cell viability at 5 to 20 uM after 24 hrs by MTT assay in presence of vitamin E. The series is classed as functional, cell-based. On the technique in general: Tetrazolium assays rely on reduction of a dye to a coloured formazan, in cell work by metabolically active cells.
The subject of series [6] is L1210. Description: Cytotoxicity against mouse L1210 cells assessed as cell viability at 50 uM after 24 hrs by MTT assay in presence of vitamin E. Type of series: functional. The conditions noted are these: L1210, 24 h, read-out: Activity.
Series [7] has as its system L1210. Description: Induction of intracellular ROS production in mouse L1210 cells at 5 uM after 6 hrs by Dihydroethidium staining-based fluorescence assay in absence of vitamin E relative to control. Type of series: functional.
Series [8] deals with L1210. Description: Cell cycle arrest in mouse L1210 cells assessed as accumulation at S-phase at 10 uM after 5 hrs by propidium iodide staining-based flow cytometric analysis relative to control. Type of series: functional. A general note: Flow cytometry measures light scatter and fluorescence of single cells or particles in a stream.
Series [9] in a line: Drug uptake in nucleus of mouse L1210 cells at 5 uM after 1 hr by propidium iodide staining-based confocal microscopic analysis. Type of series: ADME, cell-based. The conditions noted are these: l1210, 1 h.
Series [10] can be described thus: Drug uptake in mitochondria of mouse L1210 cells at 4 uM after 0.5 to 24 hrs by MitoRed staining-based flow cytometric analysis. Type of series: ADME. The settings on record: l1210, 4 µM.
In series [11] the test system is L1210. Description: Induction of intracellular ROS production in mouse L1210 cells at 5 uM after 6 hrs by Dihydroethidium staining-based fluorescence assay in presence of vitamin E relative to control. The series is classed as functional, cell-based.
Series [12] is described as follows: Drug uptake in nucleus of mouse L1210 cells by Hoechst-33342 staining-based fluorescence microscopic analysis. Type of series: ADME, cell-based.
The subject of series [13] is L1210. Description: Cytotoxicity against mouse L1210 cells assessed as intracellular ATP level at 5 to 10 uM after 6 hrs by luminometric assay in presence of vitamin E. Type of series: functional, cell-based.
The next series deals with NIH3T3. Description: Cytotoxicity against mouse NIH/3T3 cells assessed as cell viability after 72 hrs by MTT assay. Type of series: cell-based. The conditions noted are these: NIH3T3, 72 h.
The test system of series [14] is L1210. Description: Cell cycle arrest in mouse L1210 cells assessed as accumulation at sub-G0 phase at 10 uM after 5 hrs by propidium iodide staining-based flow cytometric analysis relative to control. The series is classed as functional.
Series [15] in a line: Selectivity ratio of IC50 for mouse NIH/3T3 cells to IC50 for mouse L1210 cells. Type of series: ADME, cell-based. The settings on record: NIH/3T3 cells versus L1210 cells, read-out: Ratio IC50.
Series [16] can be described thus: Drug uptake in lysosomes of mouse L1210 cells at 4 uM after 30 mins by MDC staining-based flow cytometric analysis. Type of series: ADME, cell-based, Lysosome. The conditions noted are these: l1210, 0.5 h.

In the case of `CCCCCCN1C(=O)CN/C1=N\c1ccc2cc3ccc(/N=C4\NCC(=O)N4CCCCCC)cc3nc2c1.Cl`, the result with L1210 [1], in the series on L1210 [11] and in the series on L1210 [13] was inactive. Also, the result in the series with L1210 [2], with L1210 [5] and in the series with L1210 [8] was Active. Besides, the values for the Activity in the series on L1210 [3] and in the series with L1210 [14] were 50% and 17.7%, respectively. For the same compound, the selectivity ratio in series [4] and in series [15] was 4 in each case. The viability at 50 µM in the series with L1210 [6] was 80%. The “fold change (FC)” value in the series on L1210 [7] was found to be 4. In addition, the Drug uptake result in [9] is given as “Not Active”; in series [10], “Active”; in series [12], “Not Active”; in series [16], “Not Active”. Also, in the series with NIH3T3, the IC50 was 18.6 µM.
